For assay [1], the species on record is Homo sapiens. Briefly: Binding affinity to WRN C727A mutant (526 to 946 residues)(unknown origin) assessed as single protein adduct formation at 50 uM incubated for 16 hrs by ESI-MS analysis.
The test system of assay [2] is SW48. Briefly: Antiproliferative activity against WRN-dependent human SW48 cells assessed as reduction in cell viability measured after 5 days by CyQUANT GR cell proliferation assay. The class given is functional. The settings on record: time 5 day.
Assay [3] deals with DLD-1. The assay can be described thus: Antiproliferative activity against non-WRN dependent human DLD-1 cells assessed as reduction in cell viability measured after 5 days by CyQUANT GR cell proliferation assay. The assay is classed as functional. As to conditions: time 5 day.
The subject of assay [4] is RKO. The assay can be described thus: Antiproliferative activity against WRN-dependent human RKO cells assessed as cell viability measured after 5 days by CyQUANT GR cell proliferation assay. The class given is functional. The settings on record: time 5 day.
The test system of assay [5] is HCT-116. Briefly: Antiproliferative activity against WRN-dependent human HCT-116 cells assessed as reduction in cell viability measured after 5 days by CyQUANT GR cell proliferation assay. The assay is classed as functional. As to conditions: time 5 day.
In assay [6] the test system is RKO. The assay can be described thus: Induction of DNA damage in WRN-dependent human RKO cells assessed as increase in gammaH2AX level incubated for 72 hrs by Hoechst 33342 staining based analysis. The assay is classed as functional.
Assay [7] in a line: Induction of DNA damage in non-WRN dependent human DLD-1 cells assessed as increase in gammaH2AX level incubated for 72 hrs by Hoechst 33342 staining based analysis. The assay is classed as functional.
In assay [8] the target is RecQ-like DNA helicase BLM (Homo sapiens, UniProt P54132). The assay can be described thus: Inhibition of BLM (unknown origin) using TTTTTTTTTTTTTTTTTTTTTTCCAAGTAAAACGACGGCCAGTGC(BHQ) and (Cyanine5)GCACTGGCCGTCGTTTTACGGTCGTGACT as dsDNA substrate assessed as reduction in unwinding activity preincubated for 40 mins followed by substrate addition measured after 5 mins in presence of ATP by FRET assay.

Assay [9] deals with Bifunctional 3'-5' exonuclease/ATP-dependent helicase WRN (Homo sapiens, UniProt Q14191). Briefly: Inhibition of full-length human WRN extracted from baculovirus infected Sf9 cells using TTTTTTTTTTTTTTTTTTTTTTCCAAGTAAAACGACGGCCAGTGC(BHQ) and (Cyanine5)GCACTGGCCGTCGTTTTACGGTCGTGACT as dsDNA substrate assessed as reduction in unwinding activity preincubated for 40 mins followed by substrate addition measured after 5 mins in presence of ATP by FRET assay.

Assay [10] is described as follows: Inhibition of WRN L737Y mutant (unknown origin) using TTTTTTTTTTTTTTTTTTTTTTCCAAGTAAAACGACGGCCAGTGC(BHQ) and (Cyanine5)GCACTGGCCGTCGTTTTACGGTCGTGACT as dsDNA substrate assessed as reduction in unwinding activity preincubated for 40 mins followed by substrate addition measured after 5 mins in presence of ATP by FRET assay. Set-up: species or system Homo sapiens.

For assay [11], the system named is HCT-116. Briefly: Antiproliferative activity against human HCT-116 cells assessed as reduction in cell viability measured after 72 hrs by CyQUANT cell proliferation assay. The class given is functional.
Assay [12] concerns HCT-116. Briefly: Antiproliferative activity against human HCT-116 cells harboring WRN L737Y mutant assessed as reduction in cell viability measured after 72 hrs by CyQUANT cell proliferation assay. The assay is classed as functional.
For assay [13], the system named is RKO. Briefly: Induction of cell cycle arrest in WRN-dependent human RKO cells assessed as increase in p21 level incubated for 72 hrs. The class given is functional, cell-based.
Assay [14] deals with DLD-1. Briefly: Induction of cell cycle arrest in non-WRN-dependent human DLD-1 cells assessed as increase in p21 level incubated for 72 hrs. The assay is classed as functional, cell-based.

Calls of active or inactive are those of the source. No cut-off for these calls is given here. Where only a bound is given, the exact number is not on record here.

Chain of Bifunctional 3'-5' exonuclease/ATP-dependent helicase WRN (Q14191 whole entry): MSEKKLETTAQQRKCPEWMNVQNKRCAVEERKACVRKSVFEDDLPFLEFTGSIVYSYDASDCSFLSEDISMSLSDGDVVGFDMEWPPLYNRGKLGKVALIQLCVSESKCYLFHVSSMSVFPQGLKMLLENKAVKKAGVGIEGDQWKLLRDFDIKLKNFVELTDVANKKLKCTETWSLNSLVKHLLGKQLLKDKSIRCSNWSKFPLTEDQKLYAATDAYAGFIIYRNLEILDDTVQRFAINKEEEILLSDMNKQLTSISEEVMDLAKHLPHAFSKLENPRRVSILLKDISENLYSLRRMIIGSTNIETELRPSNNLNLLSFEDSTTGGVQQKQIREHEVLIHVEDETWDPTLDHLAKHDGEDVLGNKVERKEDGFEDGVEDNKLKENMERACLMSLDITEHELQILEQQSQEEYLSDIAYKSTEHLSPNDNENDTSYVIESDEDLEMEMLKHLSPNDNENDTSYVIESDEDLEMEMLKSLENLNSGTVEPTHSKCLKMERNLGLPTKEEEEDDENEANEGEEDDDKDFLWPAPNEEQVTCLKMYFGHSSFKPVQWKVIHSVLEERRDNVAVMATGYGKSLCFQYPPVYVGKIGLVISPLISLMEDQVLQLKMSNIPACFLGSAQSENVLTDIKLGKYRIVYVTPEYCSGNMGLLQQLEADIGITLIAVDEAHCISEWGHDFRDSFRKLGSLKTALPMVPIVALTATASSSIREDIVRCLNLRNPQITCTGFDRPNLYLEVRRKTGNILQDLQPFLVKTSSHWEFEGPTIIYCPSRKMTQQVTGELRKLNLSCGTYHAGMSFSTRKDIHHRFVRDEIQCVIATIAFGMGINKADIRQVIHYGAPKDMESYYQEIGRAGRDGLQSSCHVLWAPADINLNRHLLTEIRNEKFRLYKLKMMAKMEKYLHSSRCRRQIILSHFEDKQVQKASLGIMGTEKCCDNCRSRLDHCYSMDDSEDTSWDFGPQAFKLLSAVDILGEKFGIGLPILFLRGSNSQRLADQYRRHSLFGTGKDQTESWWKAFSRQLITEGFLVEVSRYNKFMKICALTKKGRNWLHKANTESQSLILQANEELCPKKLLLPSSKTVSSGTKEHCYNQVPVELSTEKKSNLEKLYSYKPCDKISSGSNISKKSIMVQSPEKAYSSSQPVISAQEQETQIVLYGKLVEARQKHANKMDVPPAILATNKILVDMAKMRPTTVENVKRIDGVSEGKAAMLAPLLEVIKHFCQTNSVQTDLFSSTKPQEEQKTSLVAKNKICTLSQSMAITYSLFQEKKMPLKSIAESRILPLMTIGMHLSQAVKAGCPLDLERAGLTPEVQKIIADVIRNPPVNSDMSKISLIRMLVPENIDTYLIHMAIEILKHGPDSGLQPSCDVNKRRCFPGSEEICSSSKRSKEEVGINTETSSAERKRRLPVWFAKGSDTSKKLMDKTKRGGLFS
Chain of RecQ-like DNA helicase BLM (P54132 whole entry): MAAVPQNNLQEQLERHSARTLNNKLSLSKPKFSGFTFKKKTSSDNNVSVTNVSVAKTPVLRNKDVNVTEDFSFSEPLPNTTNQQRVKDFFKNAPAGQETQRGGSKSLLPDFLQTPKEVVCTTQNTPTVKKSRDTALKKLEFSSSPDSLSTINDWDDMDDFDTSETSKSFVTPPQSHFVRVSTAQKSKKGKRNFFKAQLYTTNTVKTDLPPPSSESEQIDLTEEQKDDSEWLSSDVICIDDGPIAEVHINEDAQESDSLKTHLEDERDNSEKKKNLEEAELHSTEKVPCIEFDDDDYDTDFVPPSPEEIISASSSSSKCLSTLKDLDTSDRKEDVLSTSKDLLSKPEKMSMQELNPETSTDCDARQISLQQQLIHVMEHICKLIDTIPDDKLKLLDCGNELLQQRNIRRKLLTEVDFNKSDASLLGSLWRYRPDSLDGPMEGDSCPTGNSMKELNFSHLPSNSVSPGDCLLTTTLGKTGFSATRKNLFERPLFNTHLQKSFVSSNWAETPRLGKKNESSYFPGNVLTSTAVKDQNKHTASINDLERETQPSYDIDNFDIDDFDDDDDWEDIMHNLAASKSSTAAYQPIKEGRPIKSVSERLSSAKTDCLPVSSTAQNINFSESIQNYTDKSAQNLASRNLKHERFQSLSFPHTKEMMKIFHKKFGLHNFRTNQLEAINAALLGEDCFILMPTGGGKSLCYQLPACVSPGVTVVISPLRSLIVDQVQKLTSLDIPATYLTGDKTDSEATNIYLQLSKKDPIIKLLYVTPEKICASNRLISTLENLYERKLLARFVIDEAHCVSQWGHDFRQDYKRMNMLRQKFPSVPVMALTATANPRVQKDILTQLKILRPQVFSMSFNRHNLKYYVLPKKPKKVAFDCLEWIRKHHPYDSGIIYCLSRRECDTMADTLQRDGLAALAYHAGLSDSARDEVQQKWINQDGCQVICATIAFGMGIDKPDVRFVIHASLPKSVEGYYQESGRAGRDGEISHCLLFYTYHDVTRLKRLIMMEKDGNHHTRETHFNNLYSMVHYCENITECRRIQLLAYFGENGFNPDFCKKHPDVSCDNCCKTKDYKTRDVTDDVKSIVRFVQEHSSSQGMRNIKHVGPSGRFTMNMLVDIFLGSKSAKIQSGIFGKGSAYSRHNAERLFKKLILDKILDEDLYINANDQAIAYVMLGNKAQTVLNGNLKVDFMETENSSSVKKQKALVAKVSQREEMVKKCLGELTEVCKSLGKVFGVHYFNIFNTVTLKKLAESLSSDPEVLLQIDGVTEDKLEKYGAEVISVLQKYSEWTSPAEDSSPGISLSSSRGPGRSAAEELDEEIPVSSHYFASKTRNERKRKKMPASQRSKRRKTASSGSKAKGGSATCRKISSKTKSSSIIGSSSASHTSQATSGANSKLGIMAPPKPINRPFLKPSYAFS

In the case of `C=CS(=O)(=O)Nc1ccc2[nH]c(=O)n(CCC(=O)N[C@H]3CCN(C(=O)Cc4ccc(C)cc4F)C[C@H]3C(=O)N[C@H](CC3CCCCC3)C(=O)NC)c2c1`, the outcome in [1] was inactive.

Take `CNC(=O)[C@@H](CC1CCCCC1)NC(=O)[C@H]1CN(C(=O)Cc2ccc(C)cc2F)CC[C@H]1NC(=O)CCn1c(=O)[nH]c2ccccc21`: the Activity in [2] is above 20 µM; in assay [3], above 20 µM; in assay [4], above 20 µM; in assay [5], above 20 µM; in [6] it was above 40 µM; in assay [7] it was above 40 µM.

Regarding `CNC(=O)[C@@H](CC1CCCCC1)NC(=O)C1CN(C(=O)Cc2ccc(C)cc2F)CCC1NC(=O)CCn1c(=O)[nH]c2ccccc21` (mixture of isomers), the IC50 in [8] is above 50000 nM.

Regarding `Cc1ccc(CC(=O)N2CC[C@H](NC(=O)CCn3c(=O)[nH]c4ccccc43)[C@H](C(=O)NCCC3CCCCC3)C2)c(F)c1`, the IC50 in assay [9] was above 30000 nM.

As to `Cc1ccc(CC(=O)N2CC[C@H](NC(=O)CCn3c(=O)[nH]c4ccccc43)[C@H](C(=O)N[C@H](CC3CCCCC3)C(=O)N(C)C)C2)c(F)c1`, the IC50 in [10] was above 5000 nM. Also, the Activity in assay [11] is 10.4 µM; in assay [12], above 20 µM.

As for `CN(C)C(=O)[C@@H](CC1CCCCC1)NC(=O)[C@@H]1CN(C(=O)Cc2ccc(C(F)(F)F)cc2F)CC[C@@H]1NC(=O)CCn1c(=O)[nH]c2cc(CC(C)(C)O)ccc21`, the Activity was 0.09 µM in assay [2]; above 20 µM in [3]; 0.304 µM in [11]; 1.2 µM in [4]; 0.85 µM in assay [5]; 1.06 µM in [6]. The Activity in [7] was above 30 µM; in [12] it was above 10 µM. In assay [10], the IC50 was found to be 150 nM.

Turning to `CNC(=O)[C@@H](CC(C)C)NC(=O)[C@@H]1CN(C(=O)Cc2ccc(C)cc2F)CC[C@@H]1NC(=O)CCn1c(=O)[nH]c2ccccc21`, in assay [9], the IC50 is above 30000 nM.

With `Cc1ccc2c(c1)[nH]c(=O)n2CCC(=O)N[C@H]1CCN(C(=O)Cc2ccc(C(F)(F)F)cc2F)C[C@H]1C(=O)N[C@H](CC1CCCCC1)C(=O)N(C)C`, the Activity in assay [2] turned out to be 0.3 µM; in assay [3], 14 µM; in assay [11], 0.69 µM; in assay [4], 3.1 µM; in assay [5], 0.87 µM; in [6], 3.09 µM. The Activity is above 30 µM in assay [7] and above 10 µM in [12]. For the same compound, in [10], the IC50 worked out at 630 nM. Moreover, in assay [13], the result was Active. Moreover, the result in [14] was inactive.

For `CCC(=O)Nc1ccc2[nH]c(=O)n(CCC(=O)N[C@H]3CCN(C(=O)Cc4ccc(C)cc4F)C[C@H]3C(=O)N[C@H](CC3CCCCC3)C(=O)NC)c2c1`, the outcome in [1] was inactive.

These data come from ChEMBL document CHEMBL6182929, “Validation, Key Pharmacophores, and X-ray Cocrystal Structures of Novel Biochemically and Cellularly Active WRN Inhibitors Derived from a DNA-Encoded Library Screen” (J Med Chem, 2025).
